Measurements as given in patent US12201679B2, “Epitope-targeted peptide immunostimulants” (priority 2019, dated 2025).
Read-outs that look alike come from different tables or passages of the source. Bridge positions count the residues as written; N and C are the ends. Square brackets hold non-standard residues; d marks the D form. Triazole bridges read from a SMILES are 1,4-linked. Peptide text beside a SMILES is read from it. * marks the point of attachment. Biotin = O=C1N[C@H]2[C@H](CS[C@H]2CCCCC(=O)*)N1; PEG10 = NCCOCCOCCOCCOCCOCCOCCOCCOCCOCCOCCC(=O)O; Lys(N3) = [N-]=[N+]=NCCCC[C@H](N)C(=O)O; Orn(N3) = [N-]=[N+]=NCCC[C@H](N)C(=O)O; Phe(4-F) = N[C@@H](Cc1ccc(F)cc1)C(=O)O; PEG5 = NCCOCCOCCOCCOCCOCCC(=O)O; Pra = C#CC[C@H](N)C(=O)O

Columns and labels:
[1] = target: full-length recombinant MrkA protein (Klebsiella pneumoniae, UniProt P12267); format: binding; settings: for binding to full-length MrkA compared to cy(LLFFF): sandwich ELISA, alanine scan and analogues; for affinities to MrkA: ELISA, stated as 'likely'
Source text: HPraGly is present before X1 in each peptide and Az4 follows X5 in each peptide.

[2] = Isocratic point, elution from C18 prep-scale column; format: physicochemical; settings: elution from C18 column
Protocol: PCC compounds were purified on a Waters Autopurification system, which isolated compounds based on MS peaks corresponding to protonated [M+1H]^+ and [M+2H]^2+, and/or sodium adducts [M+Na]^+ and [M+2Na]^2+. The isocratic points of PCCs were determined based on the elution of the compound from a C18 prep-scale column. Synthetic epitopes were either purified on the Waters Autopurification System, or by semi-preparative HPLC and then using matrix-assisted laser desorption/ionization mass spectroscopy to identify fractions with the desired m/z ratio. The resulting peptides were lyophilized, the yield determined by mass difference or UV-visible absorbance, and resuspended at a concentration of up to 10 mM peptide in DMSO. Peptides were stored at −80° C. before thawing for each use.

For cy(LLAFF) (cyclic), the “binding to full-length MrkA compared to cy(LLFFF)” value (“binding … compared to cy(LLFFF)” below) [1] was “Modestly lower binding”.

For `CC(C)C[C@@H]1NC(=O)[C@@H](NC(=O)CCOCCOCCOCCOCCOCCOCCOCCOCCOCCOCCNC(=O)[C@H](CCCNC(=N)N)NC(=O)[C@H](CCCNC(=N)N)NC(=O)[C@H](CCCNC(=N)N)NC(=O)[C@H](CCCNC(=N)N)NC(=O)[C@H](CCCNC(=N)N)NC(=O)[C@H](CCCNC(=N)N)NC(=O)[C@H](CCCNC(=N)N)NC(=O)[C@H](CCCNC(=N)N)NC(=O)[C@H](CCCNC(=N)N)NC(=O)CCOCCOCCOCCOCCOCCOCCOCCOCCOCCOCCNC(=O)CCCC[C@@H]2SC[C@@H]3NC(=O)N[C@@H]32)Cc2cn(nn2)CCCC[C@@H](C(N)=O)NC(=O)[C@H](Cc2ccccc2)NC(=O)[C@H](Cc2ccccc2)NC(=O)[C@H](Cc2ccccc2)NC(=O)[C@H](CC(C)C)NC1=O` [compound 18], the “Isocratic point (%)” value [2] was 37.03% and the “Relative affinity (ratio of ELISA signal versus cy(LLFFF))” value ([1]; ELISA 5, [MrkA] 25 nM) was 0.58.

With `CC(C)C[C@@H]1NC(=O)[C@@H](NC(=O)CCOCCOCCOCCOCCOCCOCCOCCOCCOCCOCCNC(=O)[C@H](CCCNC(=N)N)NC(=O)[C@H](CCCNC(=N)N)NC(=O)[C@H](CCCNC(=N)N)NC(=O)CCOCCOCCOCCOCCOCCOCCOCCOCCOCCOCCNC(=O)CCCC[C@@H]2SC[C@@H]3NC(=O)N[C@@H]32)Cc2cn(nn2)CCCC[C@@H](C(N)=O)NC(=O)[C@H](Cc2ccccc2)NC(=O)[C@H](Cc2ccccc2)NC(=O)[C@H](Cc2ccccc2)NC(=O)[C@H](CC(C)C)NC1=O` [compound 16] ({Biotin-PEG10}-RRR[PEG10][Pra]LLFFF[Lys(N3)]-NH2; triazole 5-11) the “Isocratic point (%)” value [2] was 45.02% and the “Relative affinity (ratio of ELISA signal versus cy(LLFFF))” value ([1]; ELISA 5, [MrkA] 25 nM) was 0.90.

In the case of `CC(C)C[C@@H]1NC(=O)[C@H](Cc2c[nH]cn2)NC(=O)[C@H](CCCNC(=N)N)NC(=O)[C@H](Cc2ccc(O)cc2)NC(=O)[C@@H](NC(=O)CCOCCOCCOCCOCCOCCNC(=O)CCCC[C@@H]2SC[C@@H]3NC(=O)N[C@@H]32)Cc2cn(nn2)CCCC[C@@H](C(N)=O)NC(=O)CNC1=O` [cy(YRHLG)] ({Biotin-PEG5}-[Pra]YRHLG[Lys(N3)]-NH2; triazole 1-7), the “affinities to MrkA” value [1] is reported as about 1 µM and the “binding … compared to cy(LLFFF)” value [1] is reported as “lower affinities”.

For `CC(C)C[C@@H]1NC(=O)[C@H](CCCNC(=N)N)NC(=O)[C@H](Cc2c[nH]cn2)NC(=O)[C@H](C(C)C)NC(=O)CNC(=O)[C@@H](NC(=O)CCOCCOCCOCCOCCOCCNC(=O)CCCC[C@@H]2SC[C@@H]3NC(=O)N[C@@H]32)Cc2cn(nn2)CCCC[C@@H](C(N)=O)NC1=O` [cy(GVHRL)] ({Biotin-PEG5}-[Pra]GVHRL[Lys(N3)]-NH2; triazole 1-7), the “affinities to MrkA” value [1] was about 1 µM and the “binding … compared to cy(LLFFF)” value [1] was “lower affinities”.

For `CC(C)C[C@@H]1NC(=O)[C@@H](NC(=O)CCOCCOCCOCCOCCOCCOCCOCCOCCOCCOCCNC(=O)CCCC[C@@H]2SC[C@@H]3NC(=O)N[C@@H]32)CCCCn2cc(nn2)C[C@@H](C(N)=O)NC(=O)[C@H](C)NC(=O)[C@H](Cc2ccccc2)NC(=O)[C@H](Cc2ccccc2)NC(=O)[C@H](CC(C)C)NC1=O` [compound 6] ({Biotin-PEG10}-[Lys(N3)]LLFFA[Pra]-NH2; triazole 1-7), the “Isocratic point (%)” value [2] was 64.43% and the “Relative affinity (ratio of ELISA signal versus cy(LLFFF))” value ([1]; ELISA 2, [MrkA] 25 nM) was 0.04.

For `C[C@@H]1NC(=O)[C@H](C)NC(=O)[C@@H](NC(=O)CCOCCOCCOCCOCCOCCOCCOCCOCCOCCOCCNC(=O)CCCC[C@@H]2SC[C@@H]3NC(=O)N[C@@H]32)Cc2cn(nn2)CCCC[C@@H](C(N)=O)NC(=O)[C@H](Cc2ccccc2)NC(=O)[C@H](Cc2ccccc2)NC(=O)[C@H](Cc2ccccc2)NC1=O` [compound 7] ({Biotin-PEG10}-[Pra]AAFFF[Lys(N3)]-NH2; triazole 1-7), the “Isocratic point (%)” value [2] was 54.65% and the “Relative affinity (ratio of ELISA signal versus cy(LLFFF))” value ([1]; ELISA 3, [MrkA] 50 nM) was 0.15.

For `CC(C)C[C@@H]1NC(=O)[C@H](CC(=O)O)NC(=O)[C@@H](NC(=O)CCOCCOCCOCCOCCOCCOCCOCCOCCOCCOCCNC(=O)CCCC[C@@H]2SC[C@@H]3NC(=O)N[C@@H]32)Cc2cn(nn2)CCCC[C@@H](C(N)=O)NC(=O)[C@H](Cc2ccccc2)NC(=O)[C@H](Cc2ccccc2)NC(=O)[C@H](Cc2ccccc2)NC1=O` [compound 20] ({Biotin-PEG10}-[Pra]DLFFF[Lys(N3)]-NH2; triazole 1-7), the “Isocratic point (%)” value [2] was 66.33% and the “Relative affinity (ratio of ELISA signal versus cy(LLFFF))” value ([1]; ELISA 6, [MrkA] 25 nM) was 0.21.

In the case of `CC(C)C[C@@H]1NC(=O)[C@H](Cc2c[nH]cn2)NC(=O)[C@@H](NC(=O)CCOCCOCCOCCOCCOCCOCCOCCOCCOCCOCCNC(=O)CCCC[C@@H]2SC[C@@H]3NC(=O)N[C@@H]32)Cc2cn(nn2)CCCC[C@@H](C(N)=O)NC(=O)[C@H](Cc2ccccc2)NC(=O)[C@H](Cc2ccccc2)NC(=O)[C@H](Cc2ccccc2)NC1=O` [compound 19] ({Biotin-PEG10}-[Pra]HLFFF[Lys(N3)]-NH2; triazole 1-7), the “Isocratic point (%)” value [2] is reported as 47.52% and the “Relative affinity (ratio of ELISA signal versus cy(LLFFF))” value ([1]; ELISA 6, [MrkA] 25 nM) is reported as 0.81.

For `CC(C)C[C@@H]1NC(=O)[C@@H](NC(=O)CCOCCOCCOCCOCCOCCOCCOCCOCCOCCOCCNC(=O)CCCC[C@@H]2SC[C@@H]3NC(=O)N[C@@H]32)Cc2cn(nn2)CCCC[C@@H](C(N)=O)NC(=O)[C@H](Cc2ccccc2)NC(=O)[C@H](Cc2ccccc2)NC(=O)[C@H](Cc2ccccc2)NC(=O)[C@H](CC(C)C)NC1=O` [Ref. compound] ({Biotin-PEG10}-[Pra]LLFFF[Lys(N3)]-NH2; triazole 1-7), the “Isocratic point (%)” value ([2]; N-terminal tag Bio-Peg10-peg10-) was 74.53%, the “Isocratic point (%)” value ([2]; N-terminal tag Bio-peg5-) was 78.85% and the “Isocratic point (%)” value ([2]; N-terminal tag Bio-peg10-) was 75.88%. For the same compound, the “Relative affinity (ratio of ELISA signal versus cy(LLFFF))” value ([1]; ELISA 1, [MrkA] for ELISA N/A) was 1.00, the “Relative affinity (ratio of ELISA signal versus cy(LLFFF))” value ([1]; ELISA 2, [MrkA] 25 nM) was 1.00 and the “Relative affinity (ratio of ELISA signal versus cy(LLFFF))” value ([1]; ELISA 3, [MrkA] 50 nM) was 1.00. For the same compound, the “Relative affinity (ratio of ELISA signal versus cy(LLFFF))” value ([1]; ELISA 4, [MrkA] 100 nM) was 1.00, the “Relative affinity (ratio of ELISA signal versus cy(LLFFF))” value ([1]; ELISA 5, [MrkA] 25 nM) was 1.00 and the “Relative affinity (ratio of ELISA signal versus cy(LLFFF))” value ([1]; ELISA 6, [MrkA] 25 nM) was 1.00.

With `CC(C)C[C@@H]1NC(=O)[C@@H](NC(=O)CCOCCOCCOCCOCCOCCOCCOCCOCCOCCOCCNC(=O)CCCC[C@@H]2SC[C@@H]3NC(=O)N[C@@H]32)Cc2cn(nn2)CCCC[C@@H](C(N)=O)NC(=O)[C@H](Cc2ccc(F)cc2)NC(=O)[C@H](Cc2ccccc2)NC(=O)[C@H](Cc2ccccc2)NC(=O)[C@H](CC(C)C)NC1=O` [compound 11] ({Biotin-PEG10}-[Pra]LLFF[Phe(4-F)][Lys(N3)]-NH2; triazole 1-7) the “Isocratic point (%)” value [2] was 75.53% and the “Relative affinity (ratio of ELISA signal versus cy(LLFFF))” value ([1]; ELISA 3, [MrkA] 50 nM) was 0.88.

In the case of `CC(C)C[C@@H]1NC(=O)[C@@H](NC(=O)CCOCCOCCOCCOCCOCCOCCOCCOCCOCCOCCNC(=O)CCCC[C@@H]2SC[C@@H]3NC(=O)N[C@@H]32)Cc2cn(nn2)CCCC[C@@H](C(N)=O)NC(=O)[C@H](Cc2ccccc2)NC(=O)[C@H](C)NC(=O)[C@H](Cc2ccccc2)NC(=O)[C@H](CC(C)C)NC1=O` [compound 5] ({Biotin-PEG10}-[Pra]LLFAF[Lys(N3)]-NH2; triazole 1-7), the “Isocratic point (%)” value [2] is reported as 66.00% and the “Relative affinity (ratio of ELISA signal versus cy(LLFFF))” value ([1]; ELISA 2, [MrkA] 25 nM) is reported as 0.10.

In the case of `C[C@@H](O)[C@@H]1NC(=O)[C@@H](NC(=O)CCOCCOCCOCCOCCOCCNC(=O)CCCC[C@@H]2SC[C@@H]3NC(=O)N[C@@H]32)Cc2cn(nn2)CCCC[C@@H](C(N)=O)NC(=O)[C@H](Cc2ccccc2)NC(=O)[C@H](Cc2ccccc2)NC(=O)[C@H](Cc2ccccc2)NC(=O)[C@H]([C@@H](C)O)NC1=O` [compound 13] ({Biotin-PEG5}-[Pra]TTFFF[Lys(N3)]-NH2; triazole 1-7), the “Isocratic point (%)” value [2] is reported as 53.40% and the “Relative affinity (ratio of ELISA signal versus cy(LLFFF))” value ([1]; ELISA 4, [MrkA] 100 nM) is reported as 0.04.

In the case of `CC(C)C[C@@H]1NC(=O)[C@@H](NC(=O)CCOCCOCCOCCOCCOCCOCCOCCOCCOCCOCCNC(=O)CCCC[C@@H]2SC[C@@H]3NC(=O)N[C@@H]32)Cc2cn(nn2)CCC[C@@H](C(N)=O)NC(=O)[C@H](Cc2ccccc2)NC(=O)[C@H](Cc2ccccc2)NC(=O)[C@H](Cc2ccccc2)NC(=O)[C@H](CC(C)C)NC1=O` [compound 10] ({Biotin-PEG10}-[Pra]LLFFF[Orn(N3)]-NH2; triazole 1-7), the “Isocratic point (%)” value [2] is reported as 76.89% and the “Relative affinity (ratio of ELISA signal versus cy(LLFFF))” value ([1]; ELISA 3, [MrkA] 50 nM) is reported as 0.89.

For `C[C@@H](O)[C@@H]1NC(=O)[C@@H](NC(=O)CCOCCOCCOCCOCCOCCNC(=O)CCCC[C@@H]2SC[C@@H]3NC(=O)N[C@@H]32)Cc2cn(nn2)CCCC[C@@H](C(N)=O)NC(=O)[C@H](Cc2ccccc2)NC(=O)[C@H](Cc2ccccc2)NC(=O)[C@H](Cc2ccccc2)NC(=O)[C@H]([C@@H](C)O)NC1=O` [cy(TTFFF)] ({Biotin-PEG5}-[Pra]TTFFF[Lys(N3)]-NH2; triazole 1-7; N-terminus assumed), the “affinities to MrkA” value [1] was about 1 µM and the “binding … compared to cy(LLFFF)” value [1] was “lower affinities”.

With `CC(C)C[C@@H]1NC(=O)[C@H](CC(C)C)NC(=O)[C@@H](NC(=O)CCOCCOCCOCCOCCOCCOCCOCCOCCOCCOCCNC(=O)CCCC[C@@H]2SC[C@@H]3NC(=O)N[C@@H]32)Cc2cn(nn2)CCCC[C@@H](C(N)=O)NC(=O)[C@H](Cc2ccccc2)NC(=O)[C@H](Cc2ccccc2)NC(=O)[C@H](C)NC1=O` [compound 4] ({Biotin-PEG10}-[Pra]LLAFF[Lys(N3)]-NH2; triazole 1-7) the “Isocratic point (%)” value [2] was 70.97% and the “Relative affinity (ratio of ELISA signal versus cy(LLFFF))” value ([1]; ELISA 2, [MrkA] 25 nM) was 0.59.

In the case of cy(ALFFF) (cyclic), the “binding … compared to cy(LLFFF)” value [1] is reported as “Modestly lower binding”.

In the case of cy(LAFFF) (cyclic), the “binding … compared to cy(LLFFF)” value [1] is reported as “Modestly lower binding”.
